Measurements from patent publication US20020155106A1 (priority 2000, published 2002).
Ends that are not written are not given here. amino resin = not defined here; spacer = not defined here

Legend:
[1] = biological target: alpha-1-proteinase inhibitor (API) (Homo sapiens, UniProt P01009); type: binding
PRV [2] = type: binding, pseudorabies virus
HAV [3] = type: binding, hepatitis A virus
PPV [4] = type: binding, porcine parvovirus
PPV [5] = type: binding, porcine parvovirus; remark: listed apart in the source
SV40 = type: binding, simian virus 40
Polio Virus = type: binding, poliovirus
PRV [6] = type: binding, pseudorabies virus; details: peptide resin
BVDV = type: binding, bovine viral diarrhea virus
HIV = type: binding, human immunodeficiency virus
HAV [7] = type: binding, hepatitis A virus; remark: listed apart in the source

alpha-1-proteinase inhibitor (API), sequence (P01009 25-418): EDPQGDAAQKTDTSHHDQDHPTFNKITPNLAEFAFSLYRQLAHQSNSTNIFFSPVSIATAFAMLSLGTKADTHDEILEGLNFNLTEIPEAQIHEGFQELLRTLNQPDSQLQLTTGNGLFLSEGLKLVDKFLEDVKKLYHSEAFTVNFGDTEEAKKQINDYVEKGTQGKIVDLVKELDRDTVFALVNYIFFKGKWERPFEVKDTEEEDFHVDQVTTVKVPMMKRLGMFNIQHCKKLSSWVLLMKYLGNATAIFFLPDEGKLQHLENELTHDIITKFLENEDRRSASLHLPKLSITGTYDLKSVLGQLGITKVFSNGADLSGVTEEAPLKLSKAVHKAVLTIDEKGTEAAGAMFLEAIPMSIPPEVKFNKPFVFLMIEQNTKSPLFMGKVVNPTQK

SDLRRL: Table 2 sample 4
binding to API [1]: API-binding

APPRTV: Table 2 sample 5
binding to API [1]: API-binding

FLLYAK: also Table 4 sample 46
binds PRV (sequences that bind to all three viruses) (PRV [2]): bind
binds HAV (sequences that bind to all three viruses) (HAV [3]): bind
binds PPV (sequences that bind to all three viruses) (PPV [4]): bind

RDYDTD: Table 2 sample 2
binding to API [1]: API-binding

SKNNAA: Table 2 sample 8
binding to API [1]: API-binding

NFZQNT: Table 2 sample 7
binding to API [1]: API-binding

AQTFHD: Table 2 sample 1
binding to API [1]: API-binding

Acetyl-FLLPYK: N-acetylated FLLPYK on resin (Ac-FLLPYK)
logs reduction (clearance) of PPV in column flow-through (PPV [5]): no clearance

FLLFQP: Table 1 sample 5
Screen (positive bead, ligand identified for virus) (SV40): SV40

LKRIEY: Table 2 sample 3
binding to API [1]: API-binding

FLLIDA: Table 1 sample 8
Screen (positive bead, ligand identified for virus) (Polio Virus): Polio

VLYTNN: Table 2 sample 6
binding to API [1]: API-binding

FLLPYK: consensus peptide synthesized onto amino resin with a spacer at the carboxy terminal (FLLPYK-{spacer-amino resin}; not fully specified; reading uncertain)
binds PRV (PRV [6]): binds
logs reduction (clearance) of PPV in column flow-through (PPV [5]): five
binds BVDV (BVDV): binds
binds HIV (HIV): binds
binds HAV (HAV [7]): binds

amino-FLLP: truncated peptide on resin (on resin)
logs reduction (clearance) of PPV in column flow-through (PPV [5]): no significant clearance
